Data set [1] deals with Escherichia coli. Nature of the data set: Antibacterial activity against Escherichia coli JM109 after 24 hrs by microbroth dilution method. The class given is functional. To be noted: JM109, 24 h. (In broth dilution the organism is exposed to a series of concentrations in liquid medium.)
In data set [2] the test system is Bacillus. The data set is described as follows: Antibacterial activity against Bacillus proteus ATCC 13315 after 24 hrs by microbroth dilution method. Type of data set: functional. Conditions: ATCC 13315, 24 h.
Data set [3] deals with Pseudomonas aeruginosa. The data set is described as follows: Antibacterial activity against Pseudomonas aeruginosa ATCC 27853 after 24 hrs by microbroth dilution method. Type of data set: functional. To be noted: ATCC 27853, 24 h.
The subject of data set [4] is Salmonella enterica. The data set is described as follows: Antibacterial activity against Salmonella enterica ATCC 14028 after 24 hrs by microbroth dilution method. The class given is functional. Conditions: ATCC 14028, 24 h.
Data set [5] has as its system Staphylococcus aureus. Nature of the data set: Antibacterial activity against methicillin-resistant Staphylococcus aureus N315 after 24 hrs by microbroth dilution method. Type of data set: functional. Conditions: N315, 24 h.
The subject of data set [6] is Staphylococcus aureus. The data set is described as follows: Antibacterial activity against Staphylococcus aureus ATCC 25923 after 24 hrs by microbroth dilution method. The class given is functional. To be noted: ATCC 25923, 24 h.
In data set [7] the test system is Bacillus spizizenii. The data set is described as follows: Antibacterial activity against Bacillus subtilis ATCC 6633 after 24 hrs by microbroth dilution method. Type of data set: functional. Conditions: ATCC 6633, 24 h.
Data set [8] relates to Micrococcus luteus. The data set is described as follows: Antibacterial activity against Micrococcus luteus ATCC 4698 after 24 hrs by microbroth dilution method. The class given is functional. To be noted: NCTC 2665, 24 h.
For data set [9], the system named is Cyberlindnera jadinii. The data set is described as follows: Antifungal activity against Candida utilis ATCC 9950 after 24 hrs by microbroth dilution method. Type of data set: functional. Conditions: Williopsis jadinii, ATCC 9950, 24 h.
The test system of data set [10] is Aspergillus flavus. Nature of the data set: Antifungal activity against Aspergillus flavus ATCC 204304 after 24 hrs by microbroth dilution method. Type of data set: functional. To be noted: ATCC 204304, 24 h.
Data set [11] concerns Saccharomyces cerevisiae. The data set is described as follows: Antifungal activity against Saccharomyces cerevisiae ATCC 9763 after 24 hrs by microbroth dilution method. To be noted: ATCC 9763, 24 h. The class given is functional.
The test system of data set [12] is Candida albicans. Nature of the data set: Antifungal activity against Candida albicans ATCC 10231 after 24 hrs by microbroth dilution method. Conditions: ATCC 10231, 24 h. Type of data set: functional.
Data set [13] has as its system Pichia norvegensis. The data set is described as follows: Antifungal activity against Candida mycoderma ATCC 9888 after 24 hrs by microbroth dilution method. To be noted: ATCC 9888, 24 h. The class given is functional.
The nature of data set [14]: Ionization constant, pKa of the compound by UV spectroscopic analysis. Type of data set: physicochemical.

Values after ≈ are worked out from the molar mass of the structure shown.

On to `Cc1nc(N2CCCCC2)c([N+](=O)[O-])n1CC(O)CNC1CCN(c2c(F)cc3c(=O)c(C(=O)O)cn(C4CC4)c3c2Cl)C1` (stereo not given), for which the MIC in [1] worked out at 32 mg/L (≈ 50.6 µM); in data set [2], 1 mg/L (≈ 1.58 µM); in data set [3], 1 mg/L (≈ 1.58 µM); in [4] it was 16 mg/L (≈ 25.3 µM); in data set [5] it was 2 mg/L (≈ 3.16 µM); in [6] it was 8 mg/L (≈ 12.7 µM). In addition, the MIC in data set [7] is 8 mg/L (≈ 12.7 µM); in data set [8] it was 16 mg/L (≈ 25.3 µM); in [9], 2 mg/L (≈ 3.16 µM); in data set [10] it was 4 mg/L (≈ 6.33 µM); in [11], 8 mg/L (≈ 12.7 µM); in data set [12] it was 4 mg/L (≈ 6.33 µM). Further, the minimum inhibitory concentration (MIC) in data set [13] was 8 mg/L (≈ 12.7 µM). The pKa in data set [14] was found to be 6.69.

On to `CCn1cc(C(=O)O)c(=O)c2cc(F)c(N3CCN(CC(O)Cn4c(C)nc(N5CCOCC5)c4[N+](=O)[O-])CC3)cc21` (stereo not given), for which the minimal inhibitory concentration (MIC) in data set [1] was 64 mg/L (≈ 109 µM); in data set [2], 32 mg/L (≈ 54.5 µM); in [3], 2 mg/L (≈ 3.4 µM); in data set [4], 32 mg/L (≈ 54.5 µM); in data set [5], 4 mg/L (≈ 6.81 µM); in data set [6] it was 32 mg/L (≈ 54.5 µM). Also, the MIC in data set [7] is 16 mg/L (≈ 27.2 µM); in [8], 8 mg/L (≈ 13.6 µM); in [9] it was 16 mg/L (≈ 27.2 µM); in data set [10], 16 mg/L (≈ 27.2 µM); in [11], 16 mg/L (≈ 27.2 µM); in [12] it was 16 mg/L (≈ 27.2 µM). Besides, 64 mg/L (≈ 109 µM) was the least that counted as inhibitory in data set [13] (MIC). Also, in data set [14], the pKa worked out at 6.64.

For `CCn1cc(C(=O)O)c(=O)c2cc(F)c(N3CCN(CC(O)Cn4c([N+](=O)[O-])cnc4C)CC3)cc21` (stereo not given), the minimal inhibitory concentration (MIC) in data set [1] stood at 32 mg/L (≈ 63.7 µM); in data set [2], 16 mg/L (≈ 31.8 µM); in data set [3] it was 2 mg/L (≈ 3.98 µM); in [4] it was 16 mg/L (≈ 31.8 µM); in [5], 4 mg/L (≈ 7.96 µM); in data set [6], 16 mg/L (≈ 31.8 µM). The MIC in data set [7] was determined as 16 mg/L (≈ 31.8 µM); in data set [8], 16 mg/L (≈ 31.8 µM); in data set [9] it was 64 mg/L (≈ 127 µM); in data set [10], 32 mg/L (≈ 63.7 µM); in data set [11] it was 32 mg/L (≈ 63.7 µM); in data set [12] it was 128 mg/L (≈ 255 µM). Also, inhibition of growth in data set [13] (MIC) required 64 mg/L (≈ 127 µM). This compound gave a pKa in data set [14] of 6.57.

Take `Cc1ncc([N+](=O)[O-])n1CC(O)CN1CCN(c2cc3c(cc2F)c(=O)c(C(=O)O)cn3C2CC2)CC1` (stereo not given): the minimal inhibitory concentration (MIC) is 16 mg/L (≈ 31.1 µM) in [1]; 4 mg/L (≈ 7.77 µM) in data set [2]; 0.5 mg/L (≈ 0.972 µM) in data set [3]; 4 mg/L (≈ 7.77 µM) in [4]; 2 mg/L (≈ 3.89 µM) in [5]; 16 mg/L (≈ 31.1 µM) in data set [6]. Moreover, the minimum inhibitory concentration (MIC) in data set [7] was 4 mg/L (≈ 7.77 µM); in data set [8], 8 mg/L (≈ 15.5 µM); in [9] it was 32 mg/L (≈ 62.2 µM); in data set [10], 16 mg/L (≈ 31.1 µM); in data set [11] it was 32 mg/L (≈ 62.2 µM); in data set [12], 128 mg/L (≈ 249 µM). In addition, the MIC in [13] turned out to be 64 mg/L (≈ 124 µM). In data set [14], this compound displayed a pKa of 6.67.

Turning to `NC1CCN(c2c(F)cc3c(=O)c(C(=O)O)cn(C4CC4)c3c2Cl)C1` (stereo not given) [CLINAFLOXACIN], the minimal inhibitory concentration (MIC) in data set [1] turned out to be 1 mg/L (≈ 2.73 µM); in [2], 0.5 mg/L (≈ 1.37 µM); in data set [3] it was 1 mg/L (≈ 2.73 µM); in data set [4], 1 mg/L (≈ 2.73 µM); in [5], 1 mg/L (≈ 2.73 µM); in data set [6] it was 0.5 mg/L (≈ 1.37 µM). For the same compound, the MIC in data set [7] and in data set [8] was 0.5 mg/L (≈ 1.37 µM) each time.

Regarding `Cc1nc(N2CCCC2)c([N+](=O)[O-])n1CC(O)CN1CCN(c2cc3c(cc2F)c(=O)c(C(=O)O)cn3C2CC2)CC1` (stereo not given), the MIC in data set [1] came out at 64 mg/L (≈ 110 µM); in data set [2], 32 mg/L (≈ 54.8 µM); in [3], 2 mg/L (≈ 3.43 µM); in data set [4] it was 32 mg/L (≈ 54.8 µM); in data set [5] it was 16 mg/L (≈ 27.4 µM); in data set [6], 64 mg/L (≈ 110 µM). For the same compound, the minimum inhibitory concentration (MIC) in data set [7] was 16 mg/L (≈ 27.4 µM); in data set [8], 128 mg/L (≈ 219 µM); in data set [9], 16 mg/L (≈ 27.4 µM); in [10] it was 32 mg/L (≈ 54.8 µM); in data set [11], 32 mg/L (≈ 54.8 µM); in data set [12], 64 mg/L (≈ 110 µM). In [13], this compound yielded a minimal inhibitory concentration (MIC) of 32 mg/L (≈ 54.8 µM). The pKa in [14] amounted to 6.72.

In the case of `O=C(O)c1cn(C2CC2)c2c(Cl)c(NC3CCN(CC4CO4)C3)c(F)cc2c1=O` (stereo not given), the minimum inhibitory concentration (MIC) in data set [1] worked out at 0.5 mg/L (≈ 1.19 µM); in [2] it was 0.25 mg/L (≈ 0.593 µM); in [3], 0.5 mg/L (≈ 1.19 µM); in data set [4], 1 mg/L (≈ 2.37 µM); in [5], 2 mg/L (≈ 4.74 µM); in data set [6] it was 0.5 mg/L (≈ 1.19 µM). In addition, the MIC in [7] came out at 0.25 mg/L (≈ 0.593 µM); in data set [8], 0.25 mg/L (≈ 0.593 µM); in data set [9], 0.5 mg/L (≈ 1.19 µM); in data set [10], 0.5 mg/L (≈ 1.19 µM); in data set [11], 0.25 mg/L (≈ 0.593 µM); in data set [12], 2 mg/L (≈ 4.74 µM). In addition, the MIC in data set [13] amounted to 2 mg/L (≈ 4.74 µM).

On to `CCn1cc(C(=O)O)c(=O)c2cc(F)c(N3CCN(CC(O)Cn4c(C)nc(N5CCCC5)c4[N+](=O)[O-])CC3)cc21` (stereo not given), for which the MIC in data set [1] was found to be 128 mg/L (≈ 224 µM); in data set [2], 64 mg/L (≈ 112 µM); in data set [3], 4 mg/L (≈ 7 µM); in data set [4] it was 64 mg/L (≈ 112 µM); in [5], 32 mg/L (≈ 56 µM); in data set [6], 64 mg/L (≈ 112 µM). Moreover, the MIC turned out to be 64 mg/L (≈ 112 µM) in [7]; 64 mg/L (≈ 112 µM) in [8]; 32 mg/L (≈ 56 µM) in data set [9]; 16 mg/L (≈ 28 µM) in [10]; 8 mg/L (≈ 14 µM) in data set [11]; 32 mg/L (≈ 56 µM) in data set [12]. The same compound returned a minimal inhibitory concentration (MIC) in data set [13] of 16 mg/L (≈ 28 µM). The compound further displayed a pKa in [14] of 6.68.

One may read the MIC as the smallest concentration in the dilution series that meets the test's criterion for growth inhibition. Usually pKa stands for the negative logarithm of the acid dissociation constant. Lower therefore signals a group that gives up its proton readily.

The record behind these values is ChEMBL document CHEMBL3603734, “Design and biological evaluation of novel quinolone-based metronidazole derivatives as potent Cu(2+) mediated DNA-targeting antibacterial agents” (Bioorg Med Chem Lett, 2015).
